{"source": "ChEMBL document CHEMBL5465560", "about": "“Selectivity Literature for EUbOPEN Chemogenomic Library” (2024)", "key": {"[1]": {"target": "T1, Serine/threonine-protein kinase PLK4 (Homo sapiens) (UniProt O00444)", "T1 sequence (whole entry)": "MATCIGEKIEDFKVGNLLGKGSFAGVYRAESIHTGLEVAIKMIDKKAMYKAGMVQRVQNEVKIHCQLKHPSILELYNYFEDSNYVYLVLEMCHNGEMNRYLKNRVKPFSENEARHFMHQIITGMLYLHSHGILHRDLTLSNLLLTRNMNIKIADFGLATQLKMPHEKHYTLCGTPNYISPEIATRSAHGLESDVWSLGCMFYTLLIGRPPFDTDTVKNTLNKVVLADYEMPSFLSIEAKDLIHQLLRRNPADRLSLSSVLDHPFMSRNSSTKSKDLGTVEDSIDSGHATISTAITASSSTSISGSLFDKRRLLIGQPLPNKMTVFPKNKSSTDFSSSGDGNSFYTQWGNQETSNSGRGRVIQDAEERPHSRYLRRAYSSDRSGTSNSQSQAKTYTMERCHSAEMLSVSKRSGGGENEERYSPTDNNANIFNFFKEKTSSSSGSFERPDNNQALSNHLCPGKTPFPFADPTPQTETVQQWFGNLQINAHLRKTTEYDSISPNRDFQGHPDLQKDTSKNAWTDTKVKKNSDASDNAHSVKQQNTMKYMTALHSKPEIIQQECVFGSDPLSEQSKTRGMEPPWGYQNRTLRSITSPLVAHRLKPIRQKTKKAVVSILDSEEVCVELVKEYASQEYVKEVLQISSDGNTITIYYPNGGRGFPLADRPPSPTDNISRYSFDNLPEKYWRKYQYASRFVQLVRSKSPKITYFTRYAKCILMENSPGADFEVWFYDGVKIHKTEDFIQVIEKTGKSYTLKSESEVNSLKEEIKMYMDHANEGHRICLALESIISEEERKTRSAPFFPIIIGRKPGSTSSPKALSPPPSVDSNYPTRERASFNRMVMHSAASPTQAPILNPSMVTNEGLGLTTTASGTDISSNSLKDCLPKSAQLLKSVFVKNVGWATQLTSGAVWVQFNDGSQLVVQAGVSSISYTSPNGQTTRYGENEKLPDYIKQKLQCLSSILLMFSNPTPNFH", "settings": "at 10 µM"}, "[2]": {"target": "Vascular endothelial growth factor receptor 3 (Homo sapiens, UniProt P35916)", "sequence (P35916 whole entry)": "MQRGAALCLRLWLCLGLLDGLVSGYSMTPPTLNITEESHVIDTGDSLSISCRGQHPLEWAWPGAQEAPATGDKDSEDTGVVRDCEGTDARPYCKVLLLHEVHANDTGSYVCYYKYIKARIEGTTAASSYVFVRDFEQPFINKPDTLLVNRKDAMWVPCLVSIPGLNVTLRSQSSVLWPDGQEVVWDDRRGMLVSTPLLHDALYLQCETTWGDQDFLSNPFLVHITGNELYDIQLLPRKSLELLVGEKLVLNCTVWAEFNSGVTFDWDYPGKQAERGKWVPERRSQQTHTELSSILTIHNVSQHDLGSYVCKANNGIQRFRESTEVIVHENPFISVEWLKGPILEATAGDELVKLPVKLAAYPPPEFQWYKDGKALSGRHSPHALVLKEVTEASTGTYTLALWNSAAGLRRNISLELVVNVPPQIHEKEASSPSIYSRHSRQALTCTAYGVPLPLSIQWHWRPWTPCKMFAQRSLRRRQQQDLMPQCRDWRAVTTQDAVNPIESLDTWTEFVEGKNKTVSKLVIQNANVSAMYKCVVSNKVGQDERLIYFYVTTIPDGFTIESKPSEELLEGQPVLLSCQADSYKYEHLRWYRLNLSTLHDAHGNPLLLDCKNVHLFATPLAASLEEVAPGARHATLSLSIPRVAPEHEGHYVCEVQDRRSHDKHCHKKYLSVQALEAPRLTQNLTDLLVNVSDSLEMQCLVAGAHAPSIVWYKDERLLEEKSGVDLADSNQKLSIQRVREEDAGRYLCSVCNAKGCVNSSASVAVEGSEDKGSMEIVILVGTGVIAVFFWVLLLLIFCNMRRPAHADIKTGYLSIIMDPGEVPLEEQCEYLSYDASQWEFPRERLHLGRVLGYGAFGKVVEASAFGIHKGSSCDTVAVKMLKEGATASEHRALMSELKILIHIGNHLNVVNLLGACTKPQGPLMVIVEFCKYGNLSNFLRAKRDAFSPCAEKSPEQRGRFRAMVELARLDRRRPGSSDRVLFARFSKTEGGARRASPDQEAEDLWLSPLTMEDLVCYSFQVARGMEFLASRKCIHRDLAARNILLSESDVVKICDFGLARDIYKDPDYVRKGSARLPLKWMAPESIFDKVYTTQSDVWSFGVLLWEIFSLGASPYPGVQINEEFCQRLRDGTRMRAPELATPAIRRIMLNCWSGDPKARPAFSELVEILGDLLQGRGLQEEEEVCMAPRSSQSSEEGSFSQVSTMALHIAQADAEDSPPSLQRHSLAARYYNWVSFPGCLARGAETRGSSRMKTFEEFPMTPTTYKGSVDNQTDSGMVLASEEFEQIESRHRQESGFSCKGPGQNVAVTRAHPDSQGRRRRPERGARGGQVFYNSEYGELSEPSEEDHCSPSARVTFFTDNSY", "assay": "Selectivity interaction (KinomeScan (DiscoverX)) EUB0001079a FLT4", "settings": "at 1 µM"}, "[3]": {"target": "SRSF protein kinase 3 (Homo sapiens) (UniProt Q9UPE1)", "sequence (Q9UPE1 whole entry)": "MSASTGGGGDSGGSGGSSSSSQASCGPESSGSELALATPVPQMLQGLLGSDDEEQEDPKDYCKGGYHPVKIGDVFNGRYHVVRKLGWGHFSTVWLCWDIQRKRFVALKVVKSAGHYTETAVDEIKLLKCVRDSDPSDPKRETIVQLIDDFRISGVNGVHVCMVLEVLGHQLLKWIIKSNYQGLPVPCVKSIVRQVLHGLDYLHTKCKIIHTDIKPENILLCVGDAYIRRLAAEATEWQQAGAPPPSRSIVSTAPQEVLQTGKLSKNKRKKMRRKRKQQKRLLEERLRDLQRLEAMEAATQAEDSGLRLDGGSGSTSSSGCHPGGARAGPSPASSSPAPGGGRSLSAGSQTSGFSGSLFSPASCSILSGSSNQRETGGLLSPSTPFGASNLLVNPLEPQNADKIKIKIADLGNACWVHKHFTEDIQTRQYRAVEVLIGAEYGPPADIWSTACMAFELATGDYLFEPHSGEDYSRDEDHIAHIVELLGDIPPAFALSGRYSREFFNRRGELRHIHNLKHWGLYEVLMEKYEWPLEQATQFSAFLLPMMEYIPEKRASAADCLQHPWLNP", "assay": "Selectivity interaction (KinomeScan (DiscoverX)) EUB0000618a SRPK3", "settings": "at 10 µM"}, "[4]": {"target": "G protein-coupled receptor kinase 6 (Homo sapiens) (UniProt P43250)", "sequence (P43250 whole entry, looked up)": "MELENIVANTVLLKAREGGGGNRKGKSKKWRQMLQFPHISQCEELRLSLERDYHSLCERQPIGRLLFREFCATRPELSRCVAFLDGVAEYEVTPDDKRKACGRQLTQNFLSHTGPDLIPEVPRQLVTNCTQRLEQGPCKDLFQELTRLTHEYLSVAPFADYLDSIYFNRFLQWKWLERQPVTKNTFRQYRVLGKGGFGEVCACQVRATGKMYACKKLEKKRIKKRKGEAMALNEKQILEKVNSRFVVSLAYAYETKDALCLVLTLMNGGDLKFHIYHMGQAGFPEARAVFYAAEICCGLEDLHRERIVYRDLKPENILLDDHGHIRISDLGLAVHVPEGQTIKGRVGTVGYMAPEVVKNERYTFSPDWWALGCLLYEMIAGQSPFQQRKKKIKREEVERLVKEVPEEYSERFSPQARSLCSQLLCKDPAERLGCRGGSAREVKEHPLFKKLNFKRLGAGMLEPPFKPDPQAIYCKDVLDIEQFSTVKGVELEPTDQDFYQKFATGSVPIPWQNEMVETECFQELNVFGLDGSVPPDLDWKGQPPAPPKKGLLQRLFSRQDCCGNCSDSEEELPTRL", "assay": "Selectivity interaction (SelectScreen profiling (Invitrogen)) EUB0000607a GRK6", "settings": "at 2 µM"}, "[5]": {"target": "T2, Histone-lysine N-methyltransferase NSD3 (Homo sapiens) (UniProt Q9BZ95)", "T2 sequence (whole entry)": "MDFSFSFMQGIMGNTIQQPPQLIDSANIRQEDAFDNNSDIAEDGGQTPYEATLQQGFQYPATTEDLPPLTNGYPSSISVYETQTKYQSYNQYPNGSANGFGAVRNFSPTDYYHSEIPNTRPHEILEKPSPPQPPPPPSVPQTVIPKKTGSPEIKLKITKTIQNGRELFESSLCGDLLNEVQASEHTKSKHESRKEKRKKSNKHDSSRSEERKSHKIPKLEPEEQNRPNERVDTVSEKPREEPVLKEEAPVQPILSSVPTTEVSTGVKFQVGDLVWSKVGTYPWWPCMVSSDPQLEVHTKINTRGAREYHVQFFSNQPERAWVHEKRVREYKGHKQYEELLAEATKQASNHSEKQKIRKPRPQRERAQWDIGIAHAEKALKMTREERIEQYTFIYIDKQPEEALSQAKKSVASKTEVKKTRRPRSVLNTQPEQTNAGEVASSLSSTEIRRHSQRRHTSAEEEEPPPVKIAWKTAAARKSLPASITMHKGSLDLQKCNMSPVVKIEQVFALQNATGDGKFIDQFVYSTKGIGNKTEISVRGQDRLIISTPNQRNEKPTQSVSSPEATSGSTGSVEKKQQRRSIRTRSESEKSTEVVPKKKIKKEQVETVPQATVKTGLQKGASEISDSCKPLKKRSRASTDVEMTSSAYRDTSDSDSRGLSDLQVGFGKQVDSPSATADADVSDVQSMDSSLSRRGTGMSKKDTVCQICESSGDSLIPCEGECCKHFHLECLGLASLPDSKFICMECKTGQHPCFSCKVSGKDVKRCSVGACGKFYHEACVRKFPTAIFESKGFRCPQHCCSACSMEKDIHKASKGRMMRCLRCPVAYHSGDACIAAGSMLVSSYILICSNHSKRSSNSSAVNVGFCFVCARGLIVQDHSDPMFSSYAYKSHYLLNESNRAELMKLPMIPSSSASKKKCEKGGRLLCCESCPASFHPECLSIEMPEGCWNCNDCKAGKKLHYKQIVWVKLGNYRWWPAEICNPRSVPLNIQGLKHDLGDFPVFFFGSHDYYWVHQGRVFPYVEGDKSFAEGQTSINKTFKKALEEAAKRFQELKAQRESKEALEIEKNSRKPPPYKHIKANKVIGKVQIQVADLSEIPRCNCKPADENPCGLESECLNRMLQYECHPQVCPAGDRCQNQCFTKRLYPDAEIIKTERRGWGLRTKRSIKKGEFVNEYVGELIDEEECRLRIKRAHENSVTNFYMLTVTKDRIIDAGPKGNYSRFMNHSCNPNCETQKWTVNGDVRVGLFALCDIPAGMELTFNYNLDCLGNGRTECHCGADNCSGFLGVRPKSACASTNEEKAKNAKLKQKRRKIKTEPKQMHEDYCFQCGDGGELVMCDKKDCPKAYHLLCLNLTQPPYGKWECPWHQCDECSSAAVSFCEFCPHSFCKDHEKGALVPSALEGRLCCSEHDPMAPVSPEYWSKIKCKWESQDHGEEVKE", "settings": "at 1 µM"}, "[6]": {"target": "Calcium/calmodulin-dependent protein kinase kinase 2 (Homo sapiens) (UniProt Q96RR4)", "sequence (Q96RR4 2-588 limits assumed)": "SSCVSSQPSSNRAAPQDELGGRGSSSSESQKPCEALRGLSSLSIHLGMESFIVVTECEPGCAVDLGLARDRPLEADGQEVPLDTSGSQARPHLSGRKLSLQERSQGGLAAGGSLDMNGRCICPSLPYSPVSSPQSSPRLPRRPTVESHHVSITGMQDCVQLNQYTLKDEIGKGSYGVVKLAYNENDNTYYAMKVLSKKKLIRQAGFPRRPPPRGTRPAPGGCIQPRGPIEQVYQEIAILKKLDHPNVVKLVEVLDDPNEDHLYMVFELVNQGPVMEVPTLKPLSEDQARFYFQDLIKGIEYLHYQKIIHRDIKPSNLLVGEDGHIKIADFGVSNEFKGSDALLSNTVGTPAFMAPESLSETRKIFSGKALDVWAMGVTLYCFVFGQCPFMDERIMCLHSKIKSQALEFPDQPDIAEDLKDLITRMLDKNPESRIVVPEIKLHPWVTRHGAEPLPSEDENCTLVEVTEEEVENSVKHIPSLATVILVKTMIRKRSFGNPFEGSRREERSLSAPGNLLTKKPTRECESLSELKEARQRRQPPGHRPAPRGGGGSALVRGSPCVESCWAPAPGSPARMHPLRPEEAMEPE", "assay": "Selectivity interaction (LanthaScreen Eu Kinase Binding Assay) EUB0001632a CAMKK2", "settings": "at 10 µM"}}, "data": [{"smiles": "CCN(CC)CCCCNc1ncc2cc(-c3cc(OC)cc(OC)c3)c(NC(=O)NC(C)(C)C)nc2n1", "values": [{"measurement": "% of control", "setting": "[1]", "result": 100, "unit": "%"}]}, {"smiles": "Nc1cnc(N2CCc3cc(S(=O)(=O)Nc4c(F)cc(Cl)cc4F)cc(N4CCCC4=O)c32)nc1", "note": "[TP-020n]", "values": [{"measurement": "% of control", "setting": "[2]", "result": 86, "unit": "%"}]}, {"smiles": "O[C@H]1CC[C@H](Nc2ncc3nc(Nc4c(F)cc(F)cc4F)n([C@H]4CCOC4)c3n2)CC1", "values": [{"measurement": "% of control", "setting": "[3]", "result": 92, "unit": "%"}]}, {"smiles": "CNC(=O)Nc1ccc(-c2nc(N3CC4CCC(C3)O4)c3cnn(C4CCC5(CC4)OCCO5)c3n2)cc1", "values": [{"measurement": "% of inhibition", "setting": "[4]", "result": -1, "unit": "%"}]}, {"smiles": "CNCCN1CCC(c2cc(CN(C)C(=O)c3cccc(Oc4ccccc4)c3)ccn2)CC1", "values": [{"measurement": "% activity", "setting": "[5]", "result": "> 90", "unit": "%"}]}, {"smiles": "Cn1cc(-n2cnc3c(NCc4nc5cc(Cl)c(Cl)cc5[nH]4)nc(N4CCOCC4)nc32)cn1", "values": [{"measurement": "% of inhibition", "setting": "[6]", "result": -0.213, "unit": "%"}]}]}
